Consider 2 compounds from PMC9405216, “Antimicrobial and Cytotoxic Cyathane-Xylosides from Cultures of the Basidiomycete Dentipellis fragilis” (Antibiotics, 2022).

Values after ≈ are worked out from the molar mass of the structure shown. Where two headings read alike, the source gives them in different places.

What all share (type): cell-based
For test [1], the system named is Bacillus subtilis (DSM 10). In words: Serial dilution MIC assay, Bacillus subtilis. To be noted: DSM10, serial dilution 67-0.5 µg/mL, overnight incubation, n.i. = no inhibition, read-out: MIC. Here is the method:
(§1) Serial dilution assays in 96-well microtiter plates were performed according to our standard protocol in order to determine the minimum inhibitory concentrations (MICs) of pure isolated compounds against different microorganisms. Essentially, aliquots of compounds 1–5 and 9 (20 µL), each with an initial concentration of 1 mg/mL, were diluted in MeOH together with the respective microorganisms to concentrations ranging between 67 µg/mL and 0.5 µg/mL in the 96-well plates, followed by overnight incubation. The MIC was then determined as the lowest concentration at which no growth of the test organism was observed. A broad spectrum of clinically approved test pathogens and sensitivity indicator strains were used in the assays (Table 4 and Table 5). Ciprofloxacin, oxytetracycline, kanamycin, and gentamycin were used as positive controls against bacterial pathogens, while nystatin was used as the positive control against fungi.

Test [2] relates to Mycolicibacterium smegmatis (ATCC 700084). In words: Serial dilution MIC assay, Mycolicibacterium smegmatis. To be noted: ATCC700084, serial dilution 67-0.5 µg/mL, overnight incubation, n.i. = no inhibition, read-out: MIC. As to the method:
as §1

The test system of test [3] is Staphylococcus aureus (DSM 346). In words: Serial dilution MIC assay, Staphylococcus aureus. To be noted: DSM346, serial dilution 67-0.5 µg/mL, overnight incubation, n.i. = no inhibition, read-out: MIC. As to the method: as §1
Test [4] concerns Actinobacter baumannii (DSM 30008). In words: Serial dilution MIC assay, Actinobacter baumannii. To be noted: serial dilution 67-0.5 µg/mL, overnight incubation, n.i. = no inhibition. As to the method: as §1
The subject of test [5] is Chromobacterium violaceum (DSM 30191). In words: Serial dilution MIC assay, Chromobacterium violaceum. To be noted: overnight incubation, n.i. = no inhibition. Here is the method:
as §1

Test [6] relates to Escherichia coli (DSM 1116). In words: Serial dilution MIC assay, Escherichia coli. To be noted: overnight incubation, n.i. = no inhibition. As to the method:
as §1

Test [7] deals with Pseudomonas aeruginosa (DSM PA14). In words: Serial dilution MIC assay, Pseudomonas aeruginosa. To be noted: serial dilution 67-0.5 µg/mL, overnight incubation, n.i. = no inhibition. Here is the method:
as §1

The test system of test [8] is Candida albicans (DSM 1665). In words: Serial dilution MIC assay, Candida albicans. To be noted: overnight incubation, n.i. = no inhibition. Here is the method:
as §1

Test [9] relates to Pichia anomala (DSM 6766). In words: Serial dilution MIC assay, Pichia anomala. To be noted: Hansenula anomala, DSM6766, serial dilution 67-0.5 µg/mL, overnight incubation, n.i. = no inhibition, read-out: MIC. As to the method:
as §1

Test [10] has as its system Rhodotorula glutinis (DSM 10134). In words: Serial dilution MIC assay, Rhodotorula glutinis. To be noted: DSM10134, serial dilution 67-0.5 µg/mL, overnight incubation, n.i. = no inhibition, read-out: MIC. Here is the method:
as §1

The test system of test [11] is Schizosaccharomyces pombe (DSM 70572). In words: Serial dilution MIC assay, Schizosaccharomyces pombe. To be noted: DSM70572, serial dilution 67-0.5 µg/mL, overnight incubation, n.i. = no inhibition, read-out: MIC. As to the method: as §1
The subject of test [12] is Mucor hiemalis (DSM 2656). In words: Serial dilution MIC assay, Mucor hiemalis. To be noted: DSM2656, serial dilution 67-0.5 µg/mL, overnight incubation, n.i. = no inhibition, read-out: MIC. Here is the method:
as §1

Test [13] has as its system L929 (ACC2) mouse fibroblasts. In words: MTT cytotoxicity test, L929. To be noted: 120 h, five days incubation, n.c. = no cytotoxicity, read-out: IC50. The text has this:
(§2) A panel of mammalian cell lines was used to determine the cytotoxicity of the compounds following a previously published protocol. The assay was initially performed using the sensitive cell lines KB3.1 (human endocervical adenocarcinoma) and L929 (mouse fibroblasts). Active compounds were further tested using the cell lines MCF-7 (human breast adenocarcinoma), PC-3 (human prostate adenocarcinoma), SKOV-3 (ovarian carcinoma), A549 (human lung carcinoma), and A431 (human squamous cell carcinomas) (Table 6). The cell lines A549, KB 3.1, and L929 were cultured in DMEM (Gibco, provided by Thermo Fisher Scientific), PC-3 in F12-K (Gibco) and MC-7, and SKOV-3 and A431 in RPMI (Gibco). With the exception of A549, all cell lines were supplemented with 10% bovine serum (Gibco). All cell lines were cultured at 37 °C. The L929 and KB 3.1 cell lines were cultivated under an atmosphere of 10% (v/v) carbon dioxide. Cytotoxicity tests were then carried out using MTT (3-(4,5-dimethylthiazol-2-yl)-2,5-diphenyltetrazolium bromide) in 96-well microtiter plates. Serial dilutions of the compounds (60 µL aliquots, each with an initial concentration of 1 mg/mL) were added into 120 µL aliquots of cell suspension (50000 cells/mL) in the 96-well plates. These were incubated for five days, after which an MTT assay was performed. The absorbance was taken at 590 nm using an Elisa plate reader (Victor, Überlingen, Germany). The half-maximal inhibitory concentration (IC50), the concentration at which cell growth inhibition was 50% of the control, was calculated as described elsewhere.

Test [14] relates to KB3.1 (ACC158) human endocervical adenocarcinoma. In words: MTT cytotoxicity test, KB3.1. To be noted: KB 3-1, 120 h, KB3.1 human endocervical adenocarcinoma, five days incubation, n.c. = no cytotoxicity, read-out: IC50.
Excerpt: as §2

For test [15], the system named is MCF-7 (A115) human breast adenocarcinoma. In words: MTT cytotoxicity test, MCF-7. To be noted: MCF7, 120 h, MCF-7 human breast adenocarcinoma, five days incubation.
Excerpt: as §2
(Tetrazolium dyes change colour on reduction, which living cells bring about.)

Test [16] has as its system A549 (ACC107) human lung carcinoma. In words: MTT cytotoxicity test, A549. To be noted: Homo sapiens, 120 h, five days incubation.
Excerpt: as §2

In test [17] the test system is PC-3 (ACC465) human prostate adenocarcinoma. In words: MTT cytotoxicity test, PC-3. To be noted: 120 h, PC-3 human prostate adenocarcinoma, five days incubation.
Excerpt: as §2

The test system of test [18] is SKOV-3 (ovarian carcinoma). In words: MTT cytotoxicity test, SKOV-3. To be noted: Homo sapiens, SK-OV-3, 120 h, five days incubation.
Excerpt: as §2

The test system of test [19] is A431 (ACC91) human squamous cell carcinomas. In words: MTT cytotoxicity test, A431. To be noted: A-431, 120 h, five days incubation.
Excerpt: as §2

For test [20], the system named is other cell lines (MCF-7, A549, PC-3, SKOV-3, A431). In words: MTT cytotoxicity test, other cell lines of the panel. To be noted: range over the cell lines other than L929 and KB3.1 (Table 6).
Excerpt: as §2, with “These were incubated for five days, after which an MTT assay was performed.” left out, “The half-maximal inhibitory concentration (IC50), the concentration at which cell growth inhibition was 50% of the control, was calculated as described elsewhere.” left out

In test [21] the test system is tested microorganisms (bacteria and fungi). In words: Serial dilution MIC assays, whole panel of tested strains. To be noted: range over most tested bacterial and fungal strains; read-out: minimum inhibitory concentrations (MICs) against most tested strains. As to the method:
as §1

Broadly, the IC50 is the midpoint of a concentration-inhibition curve. In the case of `CC(C)C1=C2C3CC=C4C5OC6C(O)(COC7OC(C4C76O)C3(C)CCC2(C)CC1)O5` (centres unmarked) [Compound 1, dentifragilin A], the MIC is 1 µg/mL (≈ 2.32 µM) in test [1]; 66.6 µg/mL (≈ 155 µM) in test [2]; 4.2 µg/mL (≈ 9.76 µM) in test [3]; “n.i” in test [4]; “n.i” in test [5] (serial dilution 67-0.5 µg/mL); “n.i” in test [6] (serial dilution 67-0.5 µg/mL). For the same compound, the MIC result in [7] is “n.i”; in test [8] (serial dilution 67-0.5 µg/mL), “n.i”; in [9], 66.6 µg/mL (≈ 155 µM); in test [10], 16.7 µg/mL (≈ 38.8 µM); in test [11], 33.3 µg/mL (≈ 77.3 µM); in [12], 16.7 µg/mL (≈ 38.8 µM). In addition, the IC50 in test [13] came to 5800 nM; in test [14], 2200 nM; in test [15] it was 700 nM; in test [16], 2800 nM; in test [17], 2300 nM; in [18], 1900 nM. In addition, the figures for the IC50 in [19] and in test [20] were 15800 nM and 700 to 15800 nM, respectively.
As to `CC(C)C1=C2[C@H]3CC=C(C=O)[C@@H]4[C@H](O[C@@H]5OC[C@@H](O)C(=O)[C@@]54O)[C@]3(C)CC[C@@]2(C)CC1` [Compound 9, striatal D], the MIC in [1] worked out at 1 µg/mL (≈ 2.32 µM); in test [2], 33.3 µg/mL (≈ 77.3 µM); in test [3] it was 2.1 µg/mL (≈ 4.88 µM); in [4] (read-out: MIC) it was 66.6 µg/mL (≈ 155 µM); in test [5] (DSM30191, serial dilution 67-0.5 µg/mL, read-out: MIC), 16.6 µg/mL (≈ 38.6 µM); in test [6] (DSM1116, serial dilution 67-0.5 µg/mL, read-out: MIC), 66.6 µg/mL (≈ 155 µM). Moreover, the MIC entry in test [7] was “n.i”; in test [8] (DSM1665, serial dilution 67-0.5 µg/mL, read-out: MIC) it was 33.3 µg/mL (≈ 77.3 µM); in test [9], 33.3 µg/mL (≈ 77.3 µM); in [10], 1 µg/mL (≈ 2.32 µM); in test [11], 4.2 µg/mL (≈ 9.76 µM); in test [12], 2.1 µg/mL (≈ 4.88 µM). Further, the MIC in test [21] was in the range of 1 to 66.6 µg/mL (≈ 2.32 to 155 µM). Also, the IC50 is 800 nM in [13]; 400 nM in test [14]; 100 nM in [15]; 100 nM in test [16]; 400 nM in [17]; 100 nM in [18]. The IC50 is 1000 nM in [19] and 100 to 1000 nM in test [20].
